One assay deals with T1, BRG1 (Homo sapiens, UniProt P51532).
T1 construct: either BRM primary antibody (Cell signaling Cat #11966) or BRG primary antibody (Abcam, ab 110641); endogenous in cells; host or cells: SW1573
Description: Immunofluorescence assay for BRG1 degradation in SW1573 cells. Format: cell-based. The conditions noted are these: 20 hours incubation; for DC50: immunofluorescence mean nuclear signal, read-out: BRG1 IF Degradation IC50; for Dmax: SW1573, 20 h, normalized to a known degrader control, read-out: BRG1 IF Degradation Sinf (%). The essentials:
(§1)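 After a 20 h incubation with test compound, SW1573 cells are fixed and stained for BRM or BRG1 plus Hoechst. Per-cell mean nuclear intensity, referenced to a degrader control, is fit concentration-dependently with unconstrained maximum for Dmax.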

In the next assay the target is BRM (Homo sapiens, UniProt P51531). The assay is described as follows: Immunofluorescence assay for BRM degradation in SW1573 cells. The assay is classed as cell-based. On the set-up: treated overnight at 4° C. with either BRM primary antibody (Cell signaling Cat #11966) or BRG primary antibody; endogenous in cells; host or cells: SW1573. The conditions noted are these: 20 hours incubation; for DC50: immunofluorescence mean nuclear signal, read-out: BRM IF Degradation IC50; for BRM IF Degradation Sinf (%): normalized to a known degrader control. In a few lines:
as §1

T1 sequence (P51532 whole entry): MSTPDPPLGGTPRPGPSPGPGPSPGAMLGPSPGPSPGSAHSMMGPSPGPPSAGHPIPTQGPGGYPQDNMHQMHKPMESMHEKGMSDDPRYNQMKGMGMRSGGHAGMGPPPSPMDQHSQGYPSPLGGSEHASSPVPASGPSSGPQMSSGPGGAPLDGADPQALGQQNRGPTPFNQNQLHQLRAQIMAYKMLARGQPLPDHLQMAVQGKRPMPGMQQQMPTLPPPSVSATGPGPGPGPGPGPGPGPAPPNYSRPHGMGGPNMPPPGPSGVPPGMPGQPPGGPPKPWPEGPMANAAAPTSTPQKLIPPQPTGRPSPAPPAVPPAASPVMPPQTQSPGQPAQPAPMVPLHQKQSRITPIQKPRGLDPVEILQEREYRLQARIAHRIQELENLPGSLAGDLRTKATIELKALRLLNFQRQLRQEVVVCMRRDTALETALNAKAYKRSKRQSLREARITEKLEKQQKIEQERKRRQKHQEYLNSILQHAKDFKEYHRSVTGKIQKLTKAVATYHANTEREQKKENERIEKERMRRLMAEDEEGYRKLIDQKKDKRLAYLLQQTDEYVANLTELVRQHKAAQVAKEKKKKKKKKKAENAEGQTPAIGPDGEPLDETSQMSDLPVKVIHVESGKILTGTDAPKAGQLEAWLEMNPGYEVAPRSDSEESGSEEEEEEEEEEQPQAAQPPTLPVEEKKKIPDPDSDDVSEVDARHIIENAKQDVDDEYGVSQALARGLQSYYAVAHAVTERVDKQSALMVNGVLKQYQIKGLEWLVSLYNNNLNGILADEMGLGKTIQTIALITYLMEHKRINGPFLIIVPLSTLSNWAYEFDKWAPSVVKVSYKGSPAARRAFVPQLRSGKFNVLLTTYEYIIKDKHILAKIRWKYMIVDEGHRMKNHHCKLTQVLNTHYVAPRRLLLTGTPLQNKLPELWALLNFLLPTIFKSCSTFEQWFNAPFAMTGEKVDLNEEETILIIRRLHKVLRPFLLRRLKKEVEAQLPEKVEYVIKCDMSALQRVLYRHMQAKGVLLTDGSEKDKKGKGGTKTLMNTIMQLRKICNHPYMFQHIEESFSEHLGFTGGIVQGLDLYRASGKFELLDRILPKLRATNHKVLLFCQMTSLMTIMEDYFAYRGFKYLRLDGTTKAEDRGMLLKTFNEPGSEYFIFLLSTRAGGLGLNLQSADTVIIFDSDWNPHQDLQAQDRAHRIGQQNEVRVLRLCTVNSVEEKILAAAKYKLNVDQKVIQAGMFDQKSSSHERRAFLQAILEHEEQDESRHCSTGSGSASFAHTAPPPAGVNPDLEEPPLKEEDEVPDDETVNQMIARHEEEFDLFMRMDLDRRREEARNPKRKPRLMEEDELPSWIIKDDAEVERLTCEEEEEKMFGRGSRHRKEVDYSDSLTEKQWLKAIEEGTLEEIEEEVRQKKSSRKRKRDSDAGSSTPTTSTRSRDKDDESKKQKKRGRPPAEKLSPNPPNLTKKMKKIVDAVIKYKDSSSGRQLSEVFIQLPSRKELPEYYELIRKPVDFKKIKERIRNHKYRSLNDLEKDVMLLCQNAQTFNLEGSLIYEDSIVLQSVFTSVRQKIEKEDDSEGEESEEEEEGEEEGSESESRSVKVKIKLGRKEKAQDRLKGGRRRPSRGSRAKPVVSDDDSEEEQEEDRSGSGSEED
Sequence of BRM (P51531 whole entry): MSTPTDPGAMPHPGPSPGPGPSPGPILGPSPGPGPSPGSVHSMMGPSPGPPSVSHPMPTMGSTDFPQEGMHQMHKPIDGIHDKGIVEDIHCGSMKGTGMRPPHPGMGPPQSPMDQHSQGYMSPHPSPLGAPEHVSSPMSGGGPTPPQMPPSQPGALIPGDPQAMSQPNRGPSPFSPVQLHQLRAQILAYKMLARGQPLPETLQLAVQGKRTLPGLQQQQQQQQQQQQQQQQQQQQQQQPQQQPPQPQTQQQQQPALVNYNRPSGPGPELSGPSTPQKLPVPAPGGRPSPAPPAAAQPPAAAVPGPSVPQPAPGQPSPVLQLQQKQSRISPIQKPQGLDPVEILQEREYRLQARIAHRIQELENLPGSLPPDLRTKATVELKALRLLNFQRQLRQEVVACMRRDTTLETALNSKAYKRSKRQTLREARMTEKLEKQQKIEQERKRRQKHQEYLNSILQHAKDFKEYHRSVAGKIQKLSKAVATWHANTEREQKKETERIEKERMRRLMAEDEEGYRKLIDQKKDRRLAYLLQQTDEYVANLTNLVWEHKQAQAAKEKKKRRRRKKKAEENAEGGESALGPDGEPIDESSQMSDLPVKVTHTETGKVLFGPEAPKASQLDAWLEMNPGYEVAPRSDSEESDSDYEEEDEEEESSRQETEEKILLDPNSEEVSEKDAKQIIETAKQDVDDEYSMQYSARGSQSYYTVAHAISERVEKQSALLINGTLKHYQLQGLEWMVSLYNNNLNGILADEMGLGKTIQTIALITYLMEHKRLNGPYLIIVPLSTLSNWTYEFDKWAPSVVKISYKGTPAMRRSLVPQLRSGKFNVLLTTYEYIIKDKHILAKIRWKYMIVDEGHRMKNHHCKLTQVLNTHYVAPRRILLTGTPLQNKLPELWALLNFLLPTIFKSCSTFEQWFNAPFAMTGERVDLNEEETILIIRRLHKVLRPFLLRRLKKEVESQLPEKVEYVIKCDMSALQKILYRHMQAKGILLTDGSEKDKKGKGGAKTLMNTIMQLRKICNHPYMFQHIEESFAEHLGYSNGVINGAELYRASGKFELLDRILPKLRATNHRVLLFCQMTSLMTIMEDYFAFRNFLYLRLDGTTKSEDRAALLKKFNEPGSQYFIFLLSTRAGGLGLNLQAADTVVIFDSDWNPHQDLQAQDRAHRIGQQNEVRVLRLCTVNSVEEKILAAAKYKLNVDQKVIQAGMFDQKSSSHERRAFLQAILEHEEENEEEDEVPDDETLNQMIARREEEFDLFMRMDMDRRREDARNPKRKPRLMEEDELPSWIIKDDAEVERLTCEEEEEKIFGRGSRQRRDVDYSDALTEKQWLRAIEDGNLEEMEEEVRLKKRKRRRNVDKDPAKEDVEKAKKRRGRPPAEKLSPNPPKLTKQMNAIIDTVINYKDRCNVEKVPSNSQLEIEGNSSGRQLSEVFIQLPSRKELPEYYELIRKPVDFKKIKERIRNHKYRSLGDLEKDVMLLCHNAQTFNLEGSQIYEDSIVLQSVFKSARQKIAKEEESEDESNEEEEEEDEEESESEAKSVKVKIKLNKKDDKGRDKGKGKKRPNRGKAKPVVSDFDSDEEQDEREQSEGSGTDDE

As for `Nc1nnc(-c2ccccc2O)cc1N1CC2CCC(C1)N2c1ccnc(C#CCN2CCC(N3CCOCC3)C2)c1` (stereo not drawn) [Compound 80, 2-[6-amino-5-[8-[2-[3-(3-morpholinopyrrolidin-1-yl)prop-1-ynyl]-4-pyridyl]-3,8-diazabicyclo[3.2.1]octan-3-yl]pyridazin-3-yl]phenol], on BRG1, the DC50 was below 10 nM and the Dmax was in the range of 0 to 30%. On BRM, the DC50 is 10 to 100 nM and the “BRM IF Degradation Sinf (%)” value is on record as “E (E indicates −30%-−70%)”.

Consider `Nc1nnc(-c2ccccc2O)cc1N1CC2CCC(C1)N2c1ccnc(C#CCN2CC3CCOC3C2)c1` (stereo not drawn) [Compound 81, 2-[5-[8-[2-[3-(2,3,3a,4,6,6a-hexahydrofuro[2,3-c]pyrrol-5-yl)prop-1-ynyl]-4-pyridyl]-3,8-diazabicyclo[3.2.1]octan-3-yl]-6-amino-pyridazin-3-yl]phenol], for which, on BRG1, the DC50 is below 10 nM and the Dmax is 30 to 70%. On BRM, the DC50 was below 10 nM and the “BRM IF Degradation Sinf (%)” value is reported as “E (E indicates −30%-−70%)”.

With `COC1C2CCC1N(CC#Cc1cc(N3C4CCC3CN(c3cc(-c5ccccc5O)nnc3N)C4)ccn1)C2` (stereo not drawn) [Compound 82, 2-[6-amino-5-[8-[2-[3-(7-methoxy-2-azabicyclo[2.2.1]heptan-2-yl)prop-1-ynyl]-4-pyridyl]-3,8-diazabicyclo[3.2.1]octan-3-yl]pyridazin-3-yl]phenol], at BRG1, the DC50 was below 10 nM and the Dmax lay within 30 to 70%. On BRM, the DC50 was below 10 nM and the “BRM IF Degradation Sinf (%)” value is reported as “E (E indicates −30%-−70%)”.

In the case of `Nc1nnc(-c2ccccc2O)cc1N1CC2CCC(C1)N2c1ccnc(C#CCN2CC3COCC(C2)C3O)c1` (stereo not drawn) [Compound 83, 7-[3-[4-[3-[3-amino-6-(2-hydroxyphenyl)pyridazin-4-yl]-3,8-diazabicyclo[3.2.1]octan-8-yl]-2-pyridyl]prop-2-ynyl]-3-oxa-7-azabicyclo[3.3.1]nonan-9-ol], on BRG1, the DC50 lay in the range of 10 to 100 nM and the Dmax is 30 to 70%. At BRM, the DC50 was above 100 nM and the “BRM IF Degradation Sinf (%)” value is recorded as “E (E indicates −30%-−70%)”.

As to `Nc1nnc(-c2ccccc2O)cc1N1CC2CCC(C1)N2c1ccnc(C#CCN2CCC3(C2)CC3(F)F)c1` (stereo not drawn) [Compound 84, 2-[6-amino-5-[8-[2-[3-(2,2-difluoro-5-azaspiro[2.4]heptan-5-yl)prop-1-ynyl]-4-pyridyl]-3,8-diazabicyclo[3.2.1]octan-3-yl]pyridazin-3-yl]phenol], the DC50 on BRG1 is above 100 nM. Besides, at BRM, the DC50 was below 10 nM and the “BRM IF Degradation Sinf (%)” value is listed as “E (E indicates −30%-−70%)”.

Turning to `CN(CC#Cc1cc(N2C3CCC2CN(c2cc(-c4ccccc4O)nnc2N)C3)ccn1)CC(=O)N1CCOCC1` [Compound 85, 2-[3-[4-[3-[3-amino-6-(2-hydroxyphenyl)pyridazin-4-yl]-3,8-diazabicyclo[3.2.1]octan-8-yl]-2-pyridyl]prop-2-ynyl-methyl-amino]-1-morpholino-ethanone], at BRG1, the DC50 was above 100 nM. On BRM, the DC50 is above 100 nM and the “BRM IF Degradation Sinf (%)” value is “E (E indicates −30%-−70%)”.

In the case of `Nc1nnc(-c2ccccc2O)cc1N1CC2CCC(C1)N2c1ccnc(C#CCN2CC3CC2C3)c1` [Compound 86, 2-[6-amino-5-[8-[2-[3-(2-azabicyclo[2.1.1]hexan-2-yl)prop-1-ynyl]-4-pyridyl]-3,8-diazabicyclo[3.2.1]octan-3-yl]pyridazin-3-yl]phenol], on BRG1, the DC50 was below 10 nM and the Dmax lay within 30 to 70%. At BRM, the DC50 was below 10 nM and the “BRM IF Degradation Sinf (%)” value was “E (E indicates −30%-−70%)”.

`Nc1nnc(-c2ccccc2O)cc1N1CC2CCC(C1)N2c1ccnc(C#CCN2CCC3CC32)c1` (stereo not drawn) [Compound 87, 2-[6-amino-5-[8-[2-[3-(2-azabicyclo[3.1.0]hexan-2-yl)prop-1-ynyl]-4-pyridyl]-3,8-diazabicyclo[3.2.1]octan-3-yl]pyridazin-3-yl]phenol]: on BRG1, the DC50 was below 10 nM and the Dmax fell in the range of 30 to 70%. Also, at BRM, the DC50 was below 10 nM and the “BRM IF Degradation Sinf (%)” value is “E (E indicates −30%-−70%)”.

The record behind these values is patent publication US11993599B2, “Therapeutic compounds” (Genentech, Inc., priority 2021, dated 2024).
